BigSolDB 2.1

CC1=CC(=O)c2ccccc2C1=O
solubility (mole fraction) (in benzene, 299.44 K): 0.109
solubility (mole fraction) (in benzene, 304.83 K): 0.13
solubility (mole fraction) (in benzene, 309.71 K): 0.152
solubility (mole fraction) (in benzene, 313.92 K): 0.174
solubility (mole fraction) (in benzene, 317.75 K): 0.197
solubility (mole fraction) (in benzene, 321.86 K): 0.224
solubility (mole fraction) (in benzene, 326.75 K): 0.262
solubility (mole fraction) (in benzene, 330.75 K): 0.297
solubility (mole fraction) (in benzene, 334.65 K): 0.334
solubility (mole fraction) (in benzene, 338.96 K): 0.379
solubility (mole fraction) (in ethylbenzene, 302.85 K): 0.0976
solubility (mole fraction) (in ethylbenzene, 309.44 K): 0.122
solubility (mole fraction) (in ethylbenzene, 314.77 K): 0.146
solubility (mole fraction) (in ethylbenzene, 319.53 K): 0.173
solubility (mole fraction) (in ethylbenzene, 323.75 K): 0.199
solubility (mole fraction) (in ethylbenzene, 327.93 K): 0.228
solubility (mole fraction) (in ethylbenzene, 331.75 K): 0.26
solubility (mole fraction) (in ethylbenzene, 335.44 K): 0.297
solubility (mole fraction) (in ethylbenzene, 339.42 K): 0.342
solubility (mole fraction) (in ethylbenzene, 343.86 K): 0.396
solubility (mole fraction) (in m-xylene, 301.65 K): 0.127
solubility (mole fraction) (in m-xylene, 307.74 K): 0.151
solubility (mole fraction) (in m-xylene, 312.76 K): 0.176
solubility (mole fraction) (in m-xylene, 317.36 K): 0.202
solubility (mole fraction) (in m-xylene, 321.64 K): 0.23
solubility (mole fraction) (in m-xylene, 325.94 K): 0.258
solubility (mole fraction) (in m-xylene, 329.73 K): 0.288
solubility (mole fraction) (in m-xylene, 333.64 K): 0.323
solubility (mole fraction) (in m-xylene, 337.61 K): 0.364
solubility (mole fraction) (in m-xylene, 341.55 K): 0.411
solubility (mole fraction) (in o-xylene, 302.95 K): 0.14
solubility (mole fraction) (in o-xylene, 309.24 K): 0.169
solubility (mole fraction) (in o-xylene, 314.25 K): 0.194
solubility (mole fraction) (in o-xylene, 318.34 K): 0.219
solubility (mole fraction) (in o-xylene, 322.45 K): 0.245
solubility (mole fraction) (in o-xylene, 326.77 K): 0.274
solubility (mole fraction) (in o-xylene, 330.54 K): 0.305
solubility (mole fraction) (in o-xylene, 334.23 K): 0.34
solubility (mole fraction) (in o-xylene, 338.32 K): 0.383
solubility (mole fraction) (in o-xylene, 342.43 K): 0.432
solubility (mole fraction) (in p-xylene, 302.5 K): 0.129
solubility (mole fraction) (in p-xylene, 309.53 K): 0.158
solubility (mole fraction) (in p-xylene, 314.64 K): 0.184
solubility (mole fraction) (in p-xylene, 318.96 K): 0.21
solubility (mole fraction) (in p-xylene, 323.35 K): 0.239
solubility (mole fraction) (in p-xylene, 327.68 K): 0.269
solubility (mole fraction) (in p-xylene, 332.02 K): 0.304
solubility (mole fraction) (in p-xylene, 335.89 K): 0.344
solubility (mole fraction) (in p-xylene, 340.1 K): 0.39
solubility (mole fraction) (in p-xylene, 344.24 K): 0.44
solubility (mole fraction) (in toluene, 303.44 K): 0.119
solubility (mole fraction) (in toluene, 308.84 K): 0.143
solubility (mole fraction) (in toluene, 313.63 K): 0.166
solubility (mole fraction) (in toluene, 317.65 K): 0.189
solubility (mole fraction) (in toluene, 321.85 K): 0.216
solubility (mole fraction) (in toluene, 325.99 K): 0.246
solubility (mole fraction) (in toluene, 330.04 K): 0.277
solubility (mole fraction) (in toluene, 333.86 K): 0.311
solubility (mole fraction) (in toluene, 337.8 K): 0.351
solubility (mole fraction) (in toluene, 342.59 K): 0.404
